The target in test [1] is T1, unphosphorylated VEGF-R2Δ50 (FLVK) (Homo sapiens, UniProt P35968, DEL940-989/E990V).
T1 construct: VEGF-R2Δ50 contains residues 806–939 and 990–1171; made in house; host or cells: baculovirus/insect cell system
The experiment in a line: VEGF-R2 coupled spectrophotometric assay, unphosphorylated VEGF-R2Δ50 (FLVK). It counts as biochemical. The note with it: unphosphorylated VEGF-R2Δ50; for inhibition at 0.05 µM: 50 nM compound, read-out: FLVK (% inh @ 50 nM). Put shortly:
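Baculovirus-expressed human VEGF-R2Δ50 (kinase insert partly deleted, E990V), unphosphorylated form; ADP production coupled via PK/LDH to NADH oxidation, read at 340 nm. 20 mM poly(E4Y1), 3 mM ATP, 60 mM MgCl2, 2 mM MnCl2, 200 mM HEPES pH 7.5; 5–40 nM enzyme. Ki from Morrison tight-binding fit.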

Test [2] has as its system human umbilical vein endothelial cells (HUVEC). Description: HUVEC+VEGF proliferation assay. The test is classed as cell-based. The note with it: Homo sapiens, HUVEC; VEGF 6 ng/mL, 72 h, MTT. As for the experimental part: HUVEC+VEGF Proliferation Assay
This assay determines the ability of a test compound to inhibit the growth factor-stimulated proliferation of human umbilical vein endothelial cells (“HUVEC”). HUVEC cells (passage 3–4; Clonetics, Corp.) were thawed into EGM2 culture medium (Clonetics Corp) in T75 flasks. Fresh EGM2 medium was added to the flasks 24 hours later. Four or five days later, cells were exposed to another culture medium (F12K medium supplemented with 10% fetal bovine serum (FBS), 60 μg/mL endothelial cell growth supplement (ECGS), and 0.1 mg/mL heparin). Exponentially-growing HUVEC cells were used in experiments thereafter. Ten to twelve thousand HUVEC cells were plated in 96-well dishes in 100 μl of rich, culture medium (described above). The cells were allowed to attach for 24 hours in this medium. The medium was then removed by aspiration and 105 μl of starvation media (F12K+1% FBS) was added to each well. After 24 hours, 15 μl of test agent dissolved in 1% DMSO in starvation medium or this vehicle alone was added into each treatment well; the final DMSO concentration was 0.1%. One hour later, 30 μl of VEGF (30 ng/mL) in starvation media was added to all wells except those containing untreated controls; the final VEGF concentration was 6 ng/mL. Cellular proliferation was quantified 72 hours later by MTT dye reduction, at which time cells were exposed for 4 hours MTT (Promega Corp.). Dye reduction was stopped by addition of a stop solution (Promega Corp.) and absorbance at 595 nm was determined on a 96-well spectrophotometer plate reader.

In another test the target is T2, PDGFRβ (Homo sapiens, UniProt P09619).
T2 construct: expressed in transfected cells; host or cells: porcine aorta endothelial (PAE)-PDGFRβ cells
The experiment in a line: PAE-PDGFRβ phosphorylation in PAE-PDGFRB cells assay. The test is classed as cell-based. The note with it: PAE cells overexpressing human PDGFRβ, PDGF-BB stimulated; read-out: PAE PDGFR autophos IC50 (nM) AVG. In a few lines: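 PAE cells overexpressing human PDGFRβ, serum-starved 16 h (0.1% FBS), were given compound for 1 h at 37 °C (0.5% DMSO) and then stimulated with 1 μg/mL PDGF-BB plus 2 mM Na3VO4 for 8 min. Receptor autophosphorylation was read by capture ELISA (HRP-PY20, TMB, 450 nm); IC50 from 4-parameter fit.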

For a further test, the system named is Huvec. The experiment in a line: bFGF Huvec proliferation. The test is classed as cell-based, human. The note with it: Homo sapiens, HUVEC.

T1 sequence (P35968 with tags, fused parts or gaps DEL940-989/E990V limits assumed): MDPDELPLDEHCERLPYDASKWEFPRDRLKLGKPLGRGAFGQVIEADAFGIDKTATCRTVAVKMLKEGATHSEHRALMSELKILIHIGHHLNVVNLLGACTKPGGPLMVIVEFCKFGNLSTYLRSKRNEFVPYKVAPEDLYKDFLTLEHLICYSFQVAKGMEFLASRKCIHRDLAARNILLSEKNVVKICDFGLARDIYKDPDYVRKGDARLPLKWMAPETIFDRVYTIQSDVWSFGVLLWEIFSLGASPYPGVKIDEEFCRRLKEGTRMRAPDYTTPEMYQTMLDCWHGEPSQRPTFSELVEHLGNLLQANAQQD
T2 sequence (P09619 33-1106): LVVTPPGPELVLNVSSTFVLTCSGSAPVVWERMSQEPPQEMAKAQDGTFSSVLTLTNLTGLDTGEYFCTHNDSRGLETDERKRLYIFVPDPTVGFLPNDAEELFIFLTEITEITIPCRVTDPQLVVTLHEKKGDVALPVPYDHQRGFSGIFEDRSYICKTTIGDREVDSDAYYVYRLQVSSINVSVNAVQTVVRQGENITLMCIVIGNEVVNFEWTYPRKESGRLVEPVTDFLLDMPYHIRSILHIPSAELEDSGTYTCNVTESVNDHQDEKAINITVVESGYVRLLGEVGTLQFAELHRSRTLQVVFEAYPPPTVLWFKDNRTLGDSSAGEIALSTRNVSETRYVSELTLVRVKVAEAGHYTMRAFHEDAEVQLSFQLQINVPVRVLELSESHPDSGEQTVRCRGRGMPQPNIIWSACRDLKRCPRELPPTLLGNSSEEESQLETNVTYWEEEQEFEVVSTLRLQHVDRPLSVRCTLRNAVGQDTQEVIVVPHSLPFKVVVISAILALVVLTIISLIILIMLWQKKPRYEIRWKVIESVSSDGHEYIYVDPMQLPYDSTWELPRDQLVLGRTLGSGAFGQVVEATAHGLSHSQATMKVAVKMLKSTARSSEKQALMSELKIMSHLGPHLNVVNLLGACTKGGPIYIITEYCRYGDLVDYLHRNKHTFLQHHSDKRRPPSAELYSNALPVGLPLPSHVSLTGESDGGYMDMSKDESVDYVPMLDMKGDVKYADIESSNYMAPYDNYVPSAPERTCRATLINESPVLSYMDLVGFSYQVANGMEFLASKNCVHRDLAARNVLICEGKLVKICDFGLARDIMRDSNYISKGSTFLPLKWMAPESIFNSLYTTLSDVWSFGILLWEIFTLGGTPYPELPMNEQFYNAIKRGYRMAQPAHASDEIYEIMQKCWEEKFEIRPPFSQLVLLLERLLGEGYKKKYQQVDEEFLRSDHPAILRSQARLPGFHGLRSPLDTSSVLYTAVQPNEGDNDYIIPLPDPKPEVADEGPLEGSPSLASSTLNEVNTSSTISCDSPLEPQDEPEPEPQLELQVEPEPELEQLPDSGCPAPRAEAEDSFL

A word on the Ki: it is the dissociation constant of the complex between target and ligand, obtained from inhibition or displacement. Read a low Ki as higher affinity. In general, IC50 refers to the concentration that inhibits the measured activity by half. `CNC(=O)c1c(C)n(C)c2cc(Oc3ccnc4cc(C(=O)N5CC(O)C5)sc34)ccc12` [Example 30, 6-[2-(3-Hydroxy-azetidine-1-carbonyl)-thieno[3,2-b]pyridin-7-yloxy]-1,2-dimethyl-1H-indole-3-carboxylic acid methylamide]: in test [1], the inhibition at 0.05 µM was 63%. This compound gave a Ki in test [1] of 6 nM. The half-inhibitory concentration (IC50) in test [2] was determined as 33.6 nM; at PDGFRβ, 74 nM; in the test with Huvec, 10000 nM.

Turning to `CNC(=O)c1c(C)n(C)c2cc(Oc3ccnc4cc(C(=O)N(C)C)sc34)ccc12` [Example 33, 7-({1,2-Dimethyl-3-[(methylamino)carbonyl]-1H-indol-6-yl}oxy)-N,N-dimethylthieno[3,2-b]pyridine-2-carboxamide], in test [1], the inhibition at 0.05 µM came out at 61%. The inhibition constant (Ki) in test [1] came out at 11.5 nM. In addition, the IC50 in test [2] turned out to be 10 nM; on PDGFRβ, 63 nM; in the test with Huvec, 10000 nM.

For the compound `CNC(=O)c1c(C)n(C)c2cc(Oc3ccnc4cc(-c5ccncc5)sc34)ccc12` [Example 38, 1,2-Dimethyl-6-(2-pyridin-4-yl-thieno[3,2-b]pyridin-7-yloxy)-1H-indole-3-carboxylic acid methylamide], the inhibition at 0.05 µM in test [1] is 60%. Besides, the Ki in test [1] turned out to be 6.12 nM. In addition, the IC50 in test [2] came out at 27 nM; at PDGFRβ, 12.3 nM; in the test with Huvec, 10000 nM.

As for `CNC(=O)c1c(C)n(C)c2cc(Oc3ccnc4cc(-c5nc(C(C)(C)O)cs5)sc34)ccc12` [Example 40, 6-{2-[4(1-Hydroxy-1-methyl-ethyl)-thiazol-2-yl]-thieno[3,2-b]pyridin-7-yloxy}-1,2-dimethyl-1H-indole-3-carboxylic acid methylamide], the inhibition at 0.05 µM in test [1] worked out at 77%. In addition, the affinity in test [1], expressed as Ki, was 2.95 nM. Besides, the IC50 in test [2] amounted to 1.12 nM; on PDGFRβ it was 24.2 nM; with Huvec, 7800 nM.

Regarding `CNC(=O)c1c(C)n(C)c2cc(Oc3ccnc4cc(-c5nccs5)sc34)ccc12` [Example 41, 1,2-Dimethyl-6-(2-thiazol-2-yl-thieno[3,2-b]pyridin-7-yloxy)-1H-indole-3-carboxylic acid methylamide], the inhibition at 0.05 µM in test [1] came out at 71%. Moreover, the affinity in test [1], expressed as Ki, was 3.3 nM. In addition, the IC50 in test [2] came out at 3.7 nM; at PDGFRβ it was 22.1 nM; in the test on Huvec it was 1220 nM.

For `CNC(=O)c1c(C)n(C)c2cc(Oc3ccnc4cc(C(=O)N5CCC(CNC(=O)OC(C)(C)C)C5)sc34)ccc12` (stereo not drawn) [Example 44, tert-Butyl (1-{[7-({1,2-dimethyl-3-[(methylamino)carbonyl]-1H-indol-6-yl}oxy)thieno[3,2-b]pyridin-2-yl]carbonyl}pyrrolidin-3-yl)methylcarbamate], the inhibition at 0.05 µM in test [1] was found to be 87%. Further, the Ki in test [1] amounted to 1.2 nM. The IC50 in test [2] stood at 1.78 nM; on PDGFRβ, 21.3 nM; in the test on Huvec, 6040 nM.

Turning to `CNC(=O)c1c(C)n(C)c2cc(Oc3ccnc4cc(-c5ccc(OC)cn5)sc34)ccc12` [Example 48, 6-[2-(5-Methoxy-pyridin-2-yl)-thieno[3,2-b]pyridin-7-yloxy]-1,2-dimethyl-1H-indole-3-carboxylic acid methylamide], the inhibition at 0.05 µM in test [1] worked out at 91%. Also, the figures for the IC50 (in test [2]; at PDGFRβ; in the test on Huvec) were 0.94 nM, 21 nM and 239 nM, respectively.

In the case of `Cc1c(C(=O)NC2CC2)c2ccc(Oc3ccnc4cc(C(=O)N5CC[C@@H](O)C5)sc34)cc2n1C` [Example 53, 6-[2-((R)-3-Hydroxy-pyrrolidine-1-carbonyl)-thieno[3,2-b]pyridin-7-yloxy]-1,2-dimethyl-1H-indole-3-carboxylic acid cyclopropylamide], the inhibition at 0.05 µM in test [1] came to 93%. Besides, the Ki in test [1] was 1.07 nM. In addition, the IC50 in test [2] stood at 1.8 nM; on PDGFRβ, 229 nM; in the test on Huvec, 7230 nM.

`Cc1c(C(=O)NC2CC2)c2ccc(Oc3ccnc4cc(C(=O)N5CCC[C@H]5CO)sc34)cc2n1C` [Example 54, N-Cyclopropyl-6-[(2-{[(2S)-2-(hydroxymethyl)pyrrolidin-1-yl]carbonyl}thieno[3,2-b]pyridin-7-yl)oxy]-1,2-dimethyl-1H-indole-3-carboxamide]: the inhibition at 0.05 µM in test [1] is 89%. Besides, the Ki in test [1] was found to be 1.71 nM. Further, the IC50 was 1.8 nM in test [2], 133 nM at PDGFRβ and 10000 nM with Huvec.

Turning to `Cc1c(C(=O)NCC2CC2)c2ccc(Oc3ccnc4cc(C(=O)N5CC[C@@H](O)C5)sc34)cc2n1C` [Example 56], in test [1], the inhibition at 0.05 µM is 60%. In test [1], this compound came in with a Ki of 3.8 nM. The IC50 in test [2] worked out at 22 nM; at PDGFRβ, 109 nM; with Huvec, 10000 nM.

As for `CCCNC(=O)c1c(C)n(C)c2cc(Oc3ccnc4cc(C(=O)N5CCC[C@H]5CO)sc34)ccc12` [Example 58, 6-(2-[2-(S)Hydroxymethyl-pyrrolidine-1-carbonyl]thieno[3,2-b]pyridin-7-yloxy)-1,2-dimethyl-1H-indole-3-carboxylic acid propylamide], the inhibition at 0.05 µM in test [1] was 55%. In test [1], this compound returned a Ki of 7.59 nM. Besides, the results for the IC50 (in test [2]; at PDGFRβ; with Huvec) were 3.65 nM, 124 nM and 7830 nM, respectively.

As to `CCCNC(=O)c1c(C)n(C)c2cc(Oc3ccnc4cc(C(=O)N5CC[C@@H](O)C5)sc34)ccc12` [Example 59, 6-[2-(3-Hydroxy-pyrrolidine-1-carbonyl)-thieno[3,2-b]pyridin-7-yloxy]-1,2-dimethyl-3H-indole-3-carboxylic acid propylamide], the inhibition at 0.05 µM in test [1] was found to be 81%. Further, the Ki in test [1] turned out to be 1.38 nM. The results for the IC50 (in test [2]; on PDGFRβ; in the test on Huvec) were 0.045 nM, 115 nM and 1160 nM, respectively.

As to `CCCNC(=O)c1c(C)n(C)c2cc(Oc3ccnc4cc(-c5nccs5)sc34)ccc12` [Example 60, 1,2-Dimethyl-6-(2-thiazol-2-yl-thieno[3,2-b]pyridin-7-yloxy)1H-indole-3-carboxylic acid propylamide], the inhibition at 0.05 µM in test [1] stood at 81%. This compound returned a Ki in test [1] of 2.17 nM. Further, the IC50 in test [2] turned out to be 1.34 nM; at PDGFRβ, 38.3 nM; with Huvec, 1700 nM.

On to `Cc1c(C(=O)NCCCO)c2ccc(Oc3ccnc4cc(C(=O)N5CCC5)sc34)cc2n1C` [Example 63, 6-[2-(Azetidine-1-carbonyl)-thieno[3,2-b]pyridin-7-yloxy}-1,2-dimethyl-1H-indole-3-carboxylic acid (3-hydroxy-propyl)-amide], for which, in test [1], the inhibition at 0.05 µM was 67%. Also, the inhibition constant Ki in test [1] was determined as 9.33 nM. For the same compound, the IC50 in test [2] came to 10 nM; on PDGFRβ, 84 nM; in the test on Huvec it was 10000 nM.

Regarding `Cc1c(C(=O)NCCCO)c2ccc(Oc3ccnc4cc(C(=O)N5CCCC5)sc34)cc2n1C` [Example 65, 1,2-Dimethyl-6-[2-(pyrrolidine-1-carbonyl)-thieno[3,2-b]pyridin-7-yloxy]-1H-indole-3-carboxylic acid (3-hydroxy-propyl)-amide], in test [1], the inhibition at 0.05 µM was 65%. Affinity in test [1] was put at a Ki of 7.97 nM. The concentration for half-maximal inhibition (IC50) in test [2] is 10 nM; on PDGFRβ it was 59 nM; with Huvec, 10000 nM.

On to `Cc1c(C(=O)Nc2ccccn2)c2ccc(Oc3ccnc4cc(-c5nccn5C)sc34)cc2n1C` [Example 69, 1,2-Dimethyl-6-[2-(1-methyl-1H-imidazol-2-yl)-thieno[3,2-b]pyridin-7-yloxy]-1H-indole-3-carboxylic acid pyridin-2-ylamide], for which the inhibition at 0.05 µM in test [1] stood at 95%. This compound also yielded a Ki in test [1] of 0.3 nM. The values for the IC50 (in test [2]; at PDGFRβ; in the test on Huvec) were 0.57 nM, 6.52 nM and 4310 nM, respectively.

Turning to `Cc1c(C(=O)Nc2ccccn2)c2ccc(Oc3ccnc4cc(-c5nccs5)sc34)cc2n1C` [Example 70, 1,2-Dimethyl-6-(2-thiazol-2-yl-thieno[3,2-b]pyridin-7-yloxy)-1H-indole-3-carboxylic acid pyridin-2-ylamide], the inhibition at 0.05 µM in test [1] came to 95%. For the same compound, in test [1], affinity was put at a Ki of 0.43 nM. Besides, the IC50 in test [2] turned out to be 0.537 nM; at PDGFRβ it was 47.1 nM; in the test with Huvec, 3980 nM.

These data come from patent US7045528B2, “Benzofused heterozryl amide derivatives of thienopyridines useful as therapeutic agents, pharmaceutical compositions including the same, and methods for their use” (Agouron Pharmaceuticals, Inc., priority 2002, dated 2006).
